The term EC50 denotes the concentration needed to bring the measured effect to its halfway point.

One assay addresses T1, Dα3/Dβ1 nAChR (Drosophila melanogaster, UniProt P04755+Q9W3G6).
T1 construct: Dβ1 (NP_523927); expressed in transfected cells; host or cells: Xenopus laevis oocytes (cRNA injection)
Briefly: cell-based. Format: cell-based, D. melanogaster. The note with it: Dα3/Dβ1 nAChR, mean ± standard error (n = 5). Here is the method: cDNAs of the nAChR subunits and co-factors were cloned into pcDNA3.1 (+) vector (Thermo Fisher Scientific). The accession numbers of the nAChR subunits and cofactors are as follows: Dα1 (NP_524481), Dα2 (NP_524482), Dα3 (NP_525079), Dα4 (CAB77445), Dβ1 (NP_523927), Dβ2 (NP_524483), Dβ3 (NP_525098), DmRIC-3 (CAP16647), DmUNC-50 (NP_649813), and DmTMX3 (NP_648847). cRNAs were prepared using the mMESSAGE mMACHINE T7 ULTRA Transcription Kit (Thermo Fisher Scientific, #AM1345) according to the manual with the cDNA template which was cut with appropriate restriction enzymes at the 3’ end of the cDNA.
We minimised the use of X. laevis according to the UK Animals (Scientific Procedures) Act, 1986. […] Oocytes were defolliculated after collagenase treatment in Ca^2+-free standard oocyte saline (Ca^2+-free SOS). cRNAs of the nAChR subunits and co-factors mixed at a concentration of 0.1 mg/mL was injected into oocytes at a volume of 50 nL. Then the oocytes were incubated in the incubation medium (SOS supplemented with sodium pyruvate (Nacalai Tesque, #13058–12), penicillin-streptomycin (MilliporeSigma, #P4333), gentamycin (Nacalai Tesque, #16672–04), and 4% horse serum (Thermo Fisher Scientific, #26050–070) for 3−4 days prior to electrophysiology.
Each defolliculated X. laevis oocyte was secured in a Perspex recording chamber and perfused with the standard oocyte saline (SOS) containing 0.5 μM atropine (SOSA) at a flow rate of 7−10 mL/min [48]. Two glass electrodes filled with 2 M KCl were impaled into each oocyte and the membrane potential was clamped at -100 mV. […] The peak amplitude of the response was measured and analysed by pCLAMP (Molecular Devices, USA).
Y=Imax/1+10^(logEC50‐X)nH
Where Y is the normalised response, X is log[ligand (M)], EC50 is the half maximal concentration (M), Imax is the maximum normalised response and nH is the Hill coefficient.

The test system of assay [1] is Adult D. melanogaster flies. The assay can be described thus: Adult climbing assay. Format: in vivo. The conditions noted are these: RNAi of Dα2. On the procedure:
All flies were raised at 25°C under 12 h/12 h light/dark cycle. The animals were reared on standard fly food containing 5.5 g agar, 100 g glucose, 40 g dry yeast, 90 g cornflour, 3 mL propionic acid, and 3.5 mL 10% butyl p-hydroxybenzoate (Nacalai Tesque, Japan, #06327–15) in 70% ethanol per liter. The control strain was w^1118, and transgenic flies are as follows: UAS-nAChRα1 RNAi (#28688) was obtained from the Bloomington Drosophila Stock Center (BDSC); UAS-nAChRα2 RNAi (UAS-Dα2 RNAi, #10760), UAS-nAChRα3 RNAi (UAS-Dα3 RNAi, #101806); UAS-dicer2 (#60009) were obtained from the Vienna Drosophila Resource Center (VDRC); and UAS-mCD8::GFP (#108068) was obtained from Kyoto Stock Center. elav-Gal4 (3A3) was obtained from Michael B. O’Connor. nAChRα3-knock-in 2A-Gal4 (Dα3-knock-in T2A-Gal4) was generated by the CRISPR/Cas9 system as described in detail below.
Adult D. melanogaster flies were collected within a day following eclosion and placed in normal fly food (less than 30 flies/vial). Flies were transferred daily to new fly food. 2–5 days after eclosion, flies were briefly anesthetised with CO2, and the sexes were separated and sorted into fly vials containing 1.0% agar food for starvation (10 flies/vial). After 16 h starvation, flies were transferred to vials containing neonicotinoid-containing food without anesthesia and cultured for 6 h (10 flies/vial). Neonicotinoid-containing foods were prepared by mixing 10 μL of diluted neonicotinoids dissolved in DMSO with 990 μL of a solution containing 1% agar and 5% sucrose for each vial. After 6 h cultured in vials containing neonicotinoid-containing food, flies were gently tapped down to the surface of the food, and flies that climbed within 20 s after tapping were recorded by a video camera (GZ-F270-W, JVCKENWOOD, Japan). The maximum climbing heights of the flies within 20 s after tapping were measured using ImageJ1.53v (National Institute of Health, USA). Since the height from the surface of the food to the vial top is 8 cm, the maximum climbing height is 8 cm.

Setting [2] is: normalised to maximum ACh response.

As for `N#C/N=C1\SCCN1Cc1ccc(Cl)nc1` [Thiacloprid, thiacloprid], the EC50 at Dα3/Dβ1 nAChR was 15.8 nM. Besides, the Imax is 0.016 ± 0.001 on Dα3/Dβ1 nAChR (setting [2]) and 0.016 on Dα3/Dβ1 nAChR (efficacy). Also, the “sensitivity in adults, effect of RNAi” value in assay [1] (adult females) and in assay [1] (adult males) was “hypersensitivity” each time.
As for `O=[N+]([O-])NC1=NCCN1Cc1ccc(Cl)nc1` [Imidacloprid, imidacloprid], the EC50 at Dα3/Dβ1 nAChR was 4.79 nM. The Imax was found to be 0.032 ± 0.003 at Dα3/Dβ1 nAChR (setting [2]) and 0.032 at Dα3/Dβ1 nAChR (efficacy). For the same compound, the “sensitivity in adults, effect of RNAi” value in assay [1] (adult females) and in assay [1] (adult males) was “hypersensitivity” throughout.
Regarding `CC(=O)OCC[N+](C)(C)C` [ACh, acetylcholine], at Dα3/Dβ1 nAChR (efficacy), the Imax was 1.
At Dα3/Dβ1 nAChR, `CN/C(=N\[N+](=O)[O-])NCc1cnc(Cl)s1` [Clothianidin, clothianidin] had an EC50 of 28.8 nM. In addition, the Imax is reported as 0.691 ± 0.013 at Dα3/Dβ1 nAChR (setting [2]) and 0.691 at Dα3/Dβ1 nAChR (efficacy). Moreover, the “sensitivity in adults, effect of RNAi” value in assay [1] (adult males) was “hypersensitivity”.

Values taken from article PMC9934367, “Functional impact of subunit composition and compensation on Drosophila melanogaster nicotinic receptors–targets of neonicotinoids” (PLOS Genetics, 2023).
